Laboratory results reported in the OPERA property sets (Mansouri et al. 2018).

Settings: not given

Going from `c1cc2ccc3cccc4ccc(c1)c2c34` to `NNc1ccccc1`, the boiling point falls from 404 °C to 244 °C.

Compared with `CCCCCCCCl`, `CCCCCC(C)CCC` (stereo unspecified) is higher in boiling point: 159 °C for the first, 166 °C for the second.

First: CC1=CCCC1=O
Second: C=C1C(=O)O[C@@H]2C[C@@]3(C)CCC[C@H](C)C3=C[C@H]12
The boiling point of the first is lower: 157 °C for the first, 275 °C for the second.

First: CC(C)(C)c1cccc(C(C)(C)C)c1O
Second: Cc1ccc(C)c(C)c1C
The boiling point of the first is higher: 253 °C for the first, 205 °C for the second.

Compared with `CCCCCCCCCC1CCCCC1`, `CCCCCCCCCCCCC1CCCCC1` is higher in boiling point: 282 °C for the first, 331 °C for the second.

Going from `CC(=O)c1cccc(C(F)(F)F)c1` to `O=C(c1ccccc1)C1CCC1`, the boiling point rises from 199 °C to 260 °C.

First: CCOC(CN)OCC
Second: CCC(CC)CCl
The boiling point of the first is higher: 163 °C for the first, 126 °C for the second.

First: Cc1ccc(Br)c(C)c1
Second: CCCC(O)CC(C)C (stereo unspecified)
The boiling point of the first is higher: 205 °C for the first, 164 °C for the second.

First: CCCCOCC(C)O (stereo unspecified)
Second: CC(C)COC(=O)C(C)C
The boiling point of the first is higher: 172 °C for the first, 149 °C for the second.

First: CC(CO)(CO)CO
Second: CC[C@@H](N)CO
The boiling point of the first is higher: 283 °C for the first, 178 °C for the second.

Compared with `O=S(=O)(O)C(F)(F)C(F)(F)C(F)(F)C(F)(F)F`, `CCN(C=O)CC` is lower in boiling point: 211 °C for the first, 178 °C for the second.

`CCC1CO1` (stereo unspecified) showed a boiling point of 63.3 °C.

Going from `c1cc2ccc3cccc4ccc(c1)c2c34` to `Clc1ccc(Cl)c(-c2cccc(Cl)c2Cl)c1`, the log10 Henry constant (atm·m³/mol) rises from -4.92 to -3.85.

First: c1cc2ccc3cccc4ccc(c1)c2c34
Second: Clc1ccc(Cl)c(-c2cccc(Cl)c2Cl)c1
The log10 Koa of the first is higher: 8.8 for the first, 8.36 for the second.

`c1cc2ccc3cccc4ccc(c1)c2c34` and `CCc1c(Br)c(Br)c(Br)c(Br)c1Br` are within 0.2 log units of each other in log10 Koc (L/kg): 4.9 for the first, 4.92 for the second.

First: c1cc2ccc3cccc4ccc(c1)c2c34
Second: Cc1ccc(C)c(C)c1C
The log10 biodegradation half-life (days) of the first is higher: 2.37 for the first, 0.602 for the second.

Going from `c1cc2ccc3cccc4ccc(c1)c2c34` to `NNc1ccccc1`, the log10 vapour pressure (mmHg) rises from -5.35 to -1.58.

Going from `CCCCCCCCl` to `CCCCCCCCCC1CCCCC1`, the log10 vapour pressure (mmHg) falls from 0.451 to -2.61.

First: Cc1ccc(C)c(C)c1C
Second: CC(C)C1CCC(Cc2ccc(Cl)cc2)C1(O)Cn1cncn1 (stereo unspecified)
The log10 vapour pressure (mmHg) of the first is higher: -0.443 for the first, -7.4 for the second.

First: CC(=O)O.CCCCCCCCCCCCNC(=N)N
Second: CC(C)COC(=O)C(C)C
The log10 vapour pressure (mmHg) of the first is lower: -6.82 for the first, 0.636 for the second.

Compared with `CCC1CO1` (stereo unspecified), `CCN(C=O)CC` is lower in log10 vapour pressure (mmHg): 2.26 for the first, 0.0821 for the second.

Going from `c1cc2ccc3cccc4ccc(c1)c2c34` to `Cc1ccc(S(=O)c2ccc(C)cc2)cc1`, the melting point falls from 151 °C to 95 °C.

First: COc1c(Cl)c(Cl)c(Cl)c(Cl)c1OC
Second: COc1ccc(C(=O)c2ccc(OC)cc2O)c(O)c1
The melting point of the first is lower: 90 °C for the first, 140 °C for the second.

First: O=C([O-])CF.[Na+]
Second: CC(C)COC(=O)C(C)C
The melting point of the first is higher: 201 °C for the first, -80.7 °C for the second.

Going from `CCCCCCCCl` to `CCCCCC(C)CCC` (stereo unspecified), the melting point falls from -69.5 °C to -99 °C.

Going from `CCN(CC)CCCN(c1ccccc1)C1Cc2ccccc2C1` to `O=C(O)/C(=C\c1ccccc1)c1ccccc1`, the melting point rises from 120 °C to 172 °C.

Compared with `O=C(O)Cc1ccc(Cl)cc1`, `CC(C)C1CCC(Cc2ccc(Cl)cc2)C1(O)Cn1cncn1` (stereo unspecified) is lower in melting point: 106 °C for the first, 89 °C for the second.

Compared with `CC(C)(C)c1cccc(C(C)(C)C)c1O`, `Cc1ccc(C)c(C)c1C` is lower in melting point: 39 °C for the first, -6.2 °C for the second.

First: CCCCCCCCCC1CCCCC1
Second: CCCCCCCCCCCCC1CCCCC1
The melting point of the first is lower: -10 °C for the first, 12.5 °C for the second.

Going from `C=C1CC[C@H]2O[C@]2(C)CC[C@@H]2[C@@H]1CC2(C)C` to `C=C1C(=O)O[C@@H]2C[C@@]3(C)CCC[C@H](C)C3=C[C@H]12`, the melting point rises from 62.5 °C to 76 °C.

Compared with `Cc1nc2ccc([N+](=O)[O-])cc2[nH]1`, `Cc1ccc(Br)c(C)c1` is lower in melting point: 224 °C for the first, -17 °C for the second.

Compared with `OC(c1ccccc1)(c1ccccc1)C(O)(c1ccccc1)c1ccccc1`, `O=c1oc(=O)c2ccccc2c2ccccc12` is higher in melting point: 182 °C for the first, 217 °C for the second.

Compared with `CCCOc1ccc(O)cc1`, `NC(=O)c1ccc(C(F)(F)F)cc1` is higher in melting point: 56.5 °C for the first, 185 °C for the second.

First: Oc1c(Br)cc(Br)c2cccnc12
Second: c1cc(OCC2CO2)cc(OCC2CO2)c1 (stereo unspecified)
The melting point of the first is higher: 196 °C for the first, 42.5 °C for the second.

Going from `CCOC(CN)OCC` to `CC[C@@H](N)CO`, the melting point rises from -78 °C to -2 °C.

Going from `CC(CO)(CO)CO` to `CCCCNC(=O)OCC(C)(CCC)COC(N)=O` (stereo unspecified), the melting point falls from 204 °C to 50 °C.

Going from `CCCC(O)CC(C)C` (stereo unspecified) to `CC(=O)O.CCCCCCCCCCCCNC(=N)N`, the melting point rises from -81 °C to 136 °C.

Going from `NNc1ccccc1` to `CCc1c(Br)c(Br)c(Br)c(Br)c1Br`, the melting point rises from 19.6 °C to 138 °C.

For `FC(F)(F)C1(F)C(F)(F)C(F)(F)C(F)(F)C(F)(F)C1(F)C(F)(F)F` (stereo unspecified), the ready biodegradability was “not readily biodegradable”.
With `CC(C)(C)c1cccc(C(C)(C)C)c1O` the ready biodegradability was “not readily biodegradable”.
With `CCOC(=O)CC(=O)c1ccc(OC)cc1` the ready biodegradability was “readily biodegradable”.
For `CCCCOCC(C)O` (stereo unspecified), the ready biodegradability was “readily biodegradable”.
In the case of `CC(CO)(CO)CO`, the ready biodegradability is reported as “not readily biodegradable”.
In the case of `CCC1CO1` (stereo unspecified), the ready biodegradability is reported as “readily biodegradable”.
With `CCc1c(Br)c(Br)c(Br)c(Br)c1Br` the ready biodegradability was “not readily biodegradable”.

Same assay, conditions: fish

Going from `c1cc2ccc3cccc4ccc(c1)c2c34` to `Clc1ccc(Cl)c(-c2cccc(Cl)c2Cl)c1`, the log10 BCF rises from 3.18 to 4.84.

Going from `[Na][O]c1c(Cl)c(Cl)c(Cl)c(Cl)c1Cl` to `CCc1c(Br)c(Br)c(Br)c(Br)c1Br`, the log10 BCF falls from 2.78 to 2.52.

Going from `c1cc2ccc3cccc4ccc(c1)c2c34` to `Clc1ccc(Cl)c(-c2cccc(Cl)c2Cl)c1`, the log10 biotransformation half-life (days) rises from 0.32 to 2.33.

Going from `Cc1ccc(C)c(C)c1C` to `CCc1c(Br)c(Br)c(Br)c(Br)c1Br`, the log10 biotransformation half-life (days) falls from 1.17 to 0.02.

`CCCCCC(C)CCCC(C)C` (stereo unspecified) showed a log10 biotransformation half-life (days) of 1.02.
